Converted amounts (≈) assume the structure as drawn. The source made the active and inactive calls. The calls are words filed in the database; no cut-off is given here.
Assays:
[1] = molecular target: T1, DNA polymerase theta (Homo sapiens, UniProt O75417); assay: Inhibition of recombinant human full length DNA polymerase theta using DNA substrate measured after 1 hrs in presence of dNTPs by plate reader assay
[2] = molecular target: T1, DNA polymerase theta; assay: Displacement of tracer from recombinant Tb-labeled DNA polymerase theta (unknown origin) using DNA as substrate preincubated for 30 mins followed by compound addition for 2 hrs by HTRF assay
[3] = system: DLD-1; assay: Antiproliferative activity against human BRCA-2 deficient DLD-1 cells; assay type: functional, cell-based
[4] = molecular target: T1, DNA polymerase theta; assay: Displacement of tracer from recombinant Tb-labeled DNA polymerase theta (unknown origin) assessed as end point Kd using DNA as substrate preincubated for 30 mins followed by compound addition for 2 hrs by HTRF assay
[5] = system: DLD-1; assay: Antiproliferative activity against human DLD-1 cells; assay type: functional, cell-based
[6] = Inhibition of microhomology-mediated end joining in HEK293 cells; assay type: functional, cell-based, Homo sapiens
[7] = Metabolic stability in mouse liver microsomes assessed as intrinsic clearance; assay type: ADME, Microsome; conditions: read-out: CLH
[8] = Lipophilicity, logD of compound; assay type: physicochemical; conditions: octanol/water
[9] = Thermodynamic solubility of the compound; assay type: physicochemical; conditions: read-out: Therm_solubility
[10] = molecular target: T1, DNA polymerase theta; assay: Inhibition of human full length DNA polymerase theta ATPase activity by ADP-Glo assay
[11] = Clearance in mouse plasma at 3 mg/kg, iv; assay type: ADME, organism-based
[12] = Free maximum concentration of drug in rat at 10 mg/kg, po; assay type: ADME, organism-based; conditions: in vivo
[13] = Free maximum concentration of drug in mouse at 10 mg/kg, po; assay type: ADME, organism-based; conditions: in vivo
[14] = AUCinfinity in rat at 10 mg/kg, po; assay type: ADME, organism-based; design: time infinity, dose 10 mg/kg, route po; conditions: in vivo
[15] = Half life in rat at 3 mg/kg, iv; assay type: ADME, organism-based; conditions: in vivo
[16] = AUCinfinity in mouse at 10 mg/kg, po; assay type: ADME, organism-based; design: time infinity, dose 10 mg/kg, route po; conditions: in vivo
[17] = Volume of distribution at steady state in mouse at 3 mg/kg, iv; assay type: ADME, organism-based; conditions: in vivo, read-out: Vdss
[18] = In vivo inhibition of DNA polymerase theta in mouse assessed as fold induction of micronuclei in reticulocytes at 150 mg/kg, po BID for 4 days by flow cytometry analysis; assay type: functional; conditions: time 4 day
[19] = Half life in mouse at 3 mg/kg, iv; assay type: ADME, organism-based; conditions: in vivo
[20] = Oral bioavailability in mouse at 10 mg/kg; assay type: ADME, organism-based; conditions: in vivo
[21] = Mutagenicity in Salmonella typhimurium LT2 TA100 in presence or absence of S9 fraction by Ames test; assay type: toxicity; conditions: salmonella enterica subsp. enterica serovar typhimurium
[22] = Clearance in rat plasma at 3 mg/kg, iv; assay type: ADME, organism-based
[23] = Mutagenicity in Salmonella typhimurium LT2 TA98 in presence or absence of S9 fraction by Ames test; assay type: toxicity; conditions: salmonella enterica subsp. enterica serovar typhimurium
[24] = Metabolic stability in rat liver microsomes assessed as intrinsic clearance; assay type: ADME, Microsome; conditions: read-out: CLH
[25] = Metabolic stability in human liver microsomes assessed as intrinsic clearance; assay type: ADME, Microsome; conditions: read-out: CLH
[26] = Volume of distribution at steady state in rat at 3 mg/kg, iv; assay type: ADME, organism-based; conditions: in vivo, read-out: Vdss
[27] = Solubility of the compound; assay type: physicochemical
[28] = Oral bioavailability in rat at 10 mg/kg; assay type: ADME, organism-based; conditions: in vivo
[29] = system: Breast carcinoma cell; assay: Antitumor activity against BRCA1/SHLD2 knockout rat breast cancer xenograft model assessed as tumor growth inhibition at 100 mg/kg, po qd; assay type: functional, organism-based
[30] = Clearance in mouse plasma at 0.3 mg/kg, iv; assay type: ADME, organism-based

T1 sequence (O75417 whole entry): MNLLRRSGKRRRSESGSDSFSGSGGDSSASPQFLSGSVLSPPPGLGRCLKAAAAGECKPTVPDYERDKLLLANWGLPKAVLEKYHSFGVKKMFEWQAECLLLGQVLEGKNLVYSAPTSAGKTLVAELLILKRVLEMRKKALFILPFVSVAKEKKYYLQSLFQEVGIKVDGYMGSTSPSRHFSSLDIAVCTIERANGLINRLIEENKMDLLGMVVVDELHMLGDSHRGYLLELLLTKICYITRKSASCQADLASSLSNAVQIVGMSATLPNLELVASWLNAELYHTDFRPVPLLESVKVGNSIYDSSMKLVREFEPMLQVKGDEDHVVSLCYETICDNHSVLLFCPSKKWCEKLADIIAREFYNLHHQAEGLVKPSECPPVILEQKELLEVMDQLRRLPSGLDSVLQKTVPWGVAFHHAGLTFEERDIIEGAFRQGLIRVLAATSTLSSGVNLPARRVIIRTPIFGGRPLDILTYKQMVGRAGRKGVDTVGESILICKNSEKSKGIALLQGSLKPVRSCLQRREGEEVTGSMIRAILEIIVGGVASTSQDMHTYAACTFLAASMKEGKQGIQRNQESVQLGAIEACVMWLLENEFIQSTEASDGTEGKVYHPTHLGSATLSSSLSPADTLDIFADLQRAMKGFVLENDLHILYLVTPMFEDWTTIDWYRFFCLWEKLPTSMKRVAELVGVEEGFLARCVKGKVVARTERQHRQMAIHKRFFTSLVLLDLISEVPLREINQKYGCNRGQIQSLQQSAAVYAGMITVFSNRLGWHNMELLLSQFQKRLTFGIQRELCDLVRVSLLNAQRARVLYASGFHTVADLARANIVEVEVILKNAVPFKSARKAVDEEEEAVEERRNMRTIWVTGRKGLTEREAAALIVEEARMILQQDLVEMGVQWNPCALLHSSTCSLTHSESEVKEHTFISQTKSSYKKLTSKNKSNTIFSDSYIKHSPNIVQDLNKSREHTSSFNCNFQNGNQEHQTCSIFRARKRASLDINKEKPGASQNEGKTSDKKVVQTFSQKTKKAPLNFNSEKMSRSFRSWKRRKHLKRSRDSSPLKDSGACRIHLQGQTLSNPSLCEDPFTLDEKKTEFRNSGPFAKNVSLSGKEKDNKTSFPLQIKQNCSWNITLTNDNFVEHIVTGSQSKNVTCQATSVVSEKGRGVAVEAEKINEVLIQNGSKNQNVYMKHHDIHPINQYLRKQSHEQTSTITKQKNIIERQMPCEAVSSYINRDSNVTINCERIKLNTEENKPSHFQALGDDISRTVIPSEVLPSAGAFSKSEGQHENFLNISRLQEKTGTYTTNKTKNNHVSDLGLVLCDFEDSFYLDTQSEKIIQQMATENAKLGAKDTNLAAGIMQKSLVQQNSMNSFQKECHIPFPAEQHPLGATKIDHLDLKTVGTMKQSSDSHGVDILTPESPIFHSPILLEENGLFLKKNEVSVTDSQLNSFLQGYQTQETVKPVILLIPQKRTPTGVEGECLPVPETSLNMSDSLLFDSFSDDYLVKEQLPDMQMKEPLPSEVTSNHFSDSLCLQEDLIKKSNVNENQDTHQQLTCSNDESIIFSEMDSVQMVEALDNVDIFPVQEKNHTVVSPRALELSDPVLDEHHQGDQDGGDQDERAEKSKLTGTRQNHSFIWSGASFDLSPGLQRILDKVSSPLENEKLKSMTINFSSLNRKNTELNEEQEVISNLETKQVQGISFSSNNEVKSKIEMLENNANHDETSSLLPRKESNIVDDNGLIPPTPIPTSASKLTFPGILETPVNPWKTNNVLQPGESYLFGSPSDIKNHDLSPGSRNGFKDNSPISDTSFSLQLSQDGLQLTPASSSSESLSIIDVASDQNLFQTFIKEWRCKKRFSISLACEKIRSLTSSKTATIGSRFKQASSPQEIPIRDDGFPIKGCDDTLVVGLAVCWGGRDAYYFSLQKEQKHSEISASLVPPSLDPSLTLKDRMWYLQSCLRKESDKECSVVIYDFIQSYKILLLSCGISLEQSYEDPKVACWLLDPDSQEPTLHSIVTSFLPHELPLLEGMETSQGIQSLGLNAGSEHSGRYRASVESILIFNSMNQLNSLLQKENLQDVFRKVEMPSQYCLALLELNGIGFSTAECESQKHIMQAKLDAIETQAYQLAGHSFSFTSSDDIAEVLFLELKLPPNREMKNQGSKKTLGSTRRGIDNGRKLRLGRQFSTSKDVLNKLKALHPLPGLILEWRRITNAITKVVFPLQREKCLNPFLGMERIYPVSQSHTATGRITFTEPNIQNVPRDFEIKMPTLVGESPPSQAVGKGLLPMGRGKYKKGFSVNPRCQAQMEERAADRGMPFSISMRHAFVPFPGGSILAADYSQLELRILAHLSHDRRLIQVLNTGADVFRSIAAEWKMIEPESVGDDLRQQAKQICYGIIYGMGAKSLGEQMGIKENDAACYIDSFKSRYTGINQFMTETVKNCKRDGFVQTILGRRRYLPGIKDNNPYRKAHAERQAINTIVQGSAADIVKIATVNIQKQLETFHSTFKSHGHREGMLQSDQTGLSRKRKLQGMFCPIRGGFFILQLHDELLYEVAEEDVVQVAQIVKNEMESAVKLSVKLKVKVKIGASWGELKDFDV

## CCN(C(=O)COc1cc(C(F)(F)F)cc(C)n1)c1cccc(C)c1
[1]
  IC50: 530 nM

## Cc1cccc(N(C)C(=O)[C@@H]2[C@@H](O)CCN2c2nc(C)cc(C(F)(F)F)c2C#N)c1
[2]
  Kd: 24 nM
[3]
  EC50: 3000 nM
[4]
  Kd: 42 nM
[5]
  EC50: > 12000 nM
[6]
  EC50: 320 nM

## CCN(C(=O)[C@@H]1COC(=O)N1c1cc(C(F)(F)F)cc(C)n1)c1ccc(F)c(Cl)c1
[7]
  microsomal CLint: 260 µL/min/mg
[8]
  logD: 4

## Cc1cccc(N(C)C(=O)[C@@H]2C[C@H](O)CN2c2nc(C)cc(C(F)(F)F)c2C#N)c1
[3]
  EC50: 2300 nM
[8]
  logD: 3.6
[5]
  EC50: > 12000 nM
[6]
  EC50: 205 nM

## CCN(C(=O)[C@H](C)Nc1nc(C)cc(C)c1C#N)c1cccc(C)c1
[1]
  IC50: 230 nM

## Cc1cccc(N(C(=O)[C@@H]2CCCN2c2nc(C)cc(C(F)(F)F)c2C#N)C(C)C)c1
[1]
  IC50: 8.8 nM

## Cc1cc(C(F)(F)F)cc(N2C(=O)OC[C@H]2C(=O)N(C)c2ccc(F)c(C)c2F)n1
[7]
  microsomal CLint: 818 µL/min/mg
[1]
  IC50: 4.1 nM

## Cc1cc(C(F)(F)F)cc(N2C(=O)OC[C@H]2C(=O)N(C)c2ccc(F)c(C)c2)n1
[7]
  microsomal CLint: 404 µL/min/mg
[1]
  IC50: 9.4 nM

## Cc1cccc(N(C)C(=O)[C@@H]2[C@H](O)CCN2c2nc(C)cc(C(F)(F)F)c2C#N)c1
[2]
  Kd: 4.8 nM
[9]
  solubility thermodynamic: 381 µM (≈ 159 µg/mL)
[3]
  EC50: 800 nM
[7]
  microsomal CLint: > 1500 µL/min/mg
[8]
  logD: 3.5
[10]
  IC50: > 12000 nM
[4]
  Kd: 6.4 nM
[5]
  EC50: > 12000 nM
[6]
  EC50: 180 nM

## Cc1cc(C(F)(F)F)cc(N2C(=O)[C@H](O)[C@H](O)[C@@H]2C(=O)N(C)c2ccc(F)c(Cl)c2)n1
[3]
  EC50: > 12000 nM
[1]
  IC50: > 12000 nM
[5]
  EC50: > 12000 nM

## CCN(C(=O)[C@H](C)Nc1nc(C)cc(C(C)C)c1C#N)c1cccc(C)c1
[1]
  IC50: 49 nM

## Cc1cc(C(F)(F)F)cc(N2C(=O)[C@@H](O)[C@@H](O)[C@H]2C(=O)N(C)c2ccc(F)c(Cl)c2)n1
[11]
  clearance: 2.8 mL/min/kg
[12]
  fCmax: 79 nM
[13]
  fCmax: 405 nM
[14]
  AUC(0-inf): 2750 ng·h/mL
[15]
  half-life: 1.3 h
[16]
  AUC(0-inf): 54700 ng·h/mL
[17]
  Vd: 2.5 L/kg
[18]
  fold change (FC): 2
[19]
  half-life: 7 h
[3]
  EC50: 1100 nM
[7]
  microsomal CLint: 42 µL/min/mg
[20]
  bioavailability: 80%
[21]
  Activity: Non-Toxic
[22]
  clearance: 35 mL/min/kg
[8]
  logD: 3
[23]
  Activity: Non-Toxic
[24]
  microsomal CLint: 50 µL/min/mg
[1]
  IC50: 7.6 nM
[25]
  microsomal CLint: 30 µL/min/mg
[5]
  EC50: > 12000 nM
[26]
  Vd: 2.9 L/kg
[27]
  solubility: 880 µM (≈ 406 µg/mL)
[6]
  EC50: 240 nM
[28]
  bioavailability: 57%
[29]
  Activity: Active
[30]
  clearance: 16.4 mL/min/kg

## CCN(C(=O)COc1cc(C)cc(C)n1)c1cccc(C)c1
[1]
  IC50: 4200 nM

## CCN(C(=O)COc1nc(C)cc(C(F)(F)F)c1C#N)c1cccc(C)c1
[3]
  EC50: > 12000 nM
[1]
  IC50: 500 nM
[4]
  Kd: 61 nM
[5]
  EC50: > 12000 nM
[6]
  EC50: 680 nM

## Cc1cc(C(F)(F)F)cc(N2C(=O)OC[C@H]2C(=O)N(C)c2cccc(Cl)c2)n1
[7]
  microsomal CLint: 410 µL/min/mg

## CCN(C(=O)[C@@H](C)Nc1nc(C)cc(C(F)(F)F)c1C#N)c1cccc(C)c1
[1]
  IC50: 5100 nM

## CCN(C(=O)[C@H](C)Nc1nc(C)cc(C(F)(F)F)c1C#N)c1cccc(C)c1
[1]
  IC50: 29 nM

## CCN(C(=O)[C@@H]1CCCN1c1nc(C)cc(C)c1C#N)c1cccc(C)c1
[1]
  IC50: 72 nM

## Cc1cccc(N(C)C(=O)[C@@H]2C[C@H](O)CN2c2nc(C)cc(C)c2C#N)c1
[2]
  Kd: 19 nM
[3]
  EC50: 4100 nM
[4]
  Kd: 51 nM
[5]
  EC50: > 12000 nM
[6]
  EC50: 280 nM

## CCN(C(=O)CNc1nc(C)cc(C)c1C#N)c1cccc(C)c1
[1]
  IC50: 1800 nM

## Cc1cc(C(F)(F)F)cc(N2C(=O)OC[C@H]2C(=O)N(C)c2cc(Cl)ccc2F)n1
[7]
  microsomal CLint: 157 µL/min/mg

Reference: ChEMBL document CHEMBL5108060, “Discovery, Characterization, and Structure-Based Optimization of Small-Molecule In Vitro and In Vivo Probes for Human DNA Polymerase Theta” (J Med Chem, 2022)
